Data reported in patent publication US6716635B2, “Method for identifying regulators of protein-advanced glycation end product (protein-AGE) formation” (University of Kentucky Research Foundation, priority 2000, dated 2004).

Assays:
[1] = tested on: histone H1 (cross linking by ADP-ribose); experiment: glycation induced cross linking of histone H1, 12% SDS-PAGE, silver staining; type: biochemical, calf; details: aliquots of 5 day incubation mixtures
Protocol: This example describes a secondary screening, to further evaluate compounds which were deemed positive following the assays of examples 1 and 2. Specifically, it will be recalled that each sample was tested in two wells, one of which was tested in example 2, supra. The sample not used was analyzed, via 12% SDS-PAGE, followed by silver staining, in order to visualize protein cross-linking. This serves as an independent measure of glycation caused protein damage. […] To test this, reaction aliquots of the 5 day incubation mixtures, described in Example 1, supra, were assessed on 12% SDS-PAGE. Both untreated histone H1, and the aminoguanidine containing positive control were tested in the same way. All were visualized by silver staining.

[2] = tested on: histone H1 (glycation by ADP-ribose); experiment: AGE-fluorescence screening of glycation inhibitors, histone H1 + ADP-ribose, 96 well microtiter plates; type: biochemical, calf; details: for inhibition of AGE-fluorescence, in words: 1 to 10 mM, 5 days; for AGE-fluorescence (day 5): 5 days incubation; for % inhibition: AGE-fluorescence day 5; for AGE-fluorescence (day 0): value (spread)
Protocol: A 96-well, microtiter plate was used to carry out 48 reactions in duplicate. […] A second pair of wells contains the reactants and the known glycation inhibitor aminoguanidine, and functions as a positive control. Histone H1 is commercially available, and can be prepared following the procedures set out in Johns, et al., Biochem J. 92:55-59(1964), which is incorporated by reference herein.
The reaction system is 50 mM potassium phosphate buffer, at pH 7.4 to which 1.5 mg/ml histone H1 and 1.0 mM ADP-ribose were added. Reaction volume was 300 ul. AGE-fluorescence was measured over time, with incubation at 37° C., at 355 nm (ex) and 405 nm (em). Upon comparison to the control, a test compound was deemed potentially positive if AGE-fluorescence was suppressed.
The histone H1 (1.5 mg/ml) was combined with 1 mM ADP-ribose, in […] KH2PO4 buffer (pH 7.4, 37° C., 0.015% NaN3 added, to inhibit microbial growth). This reaction mixture was added, to 96 well microtiter plates. Test compounds were added to the reaction mixture, at concentrations ranging from 1 to 10 mM, in reaction volumes of 300 ul. Texts were run in duplicate.
Accumulated protein damage was determined by measuring AGE-fluorescence, at wavelengths (λex=370 nm; λ em=440 nm. The fluorescence is suppressed in the presence of compounds with inhibitory activity. Assays were read on a conventional microtiter plate, with a filter setting that approached the above conditions (λ ex: 355 nm, λ […]: 405 nm), which is in the range of the broad excitation/emission maxima of AGE compounds.
The fluorescence was measured at the beginning, and after 5 days of incubation.
The known glycation inhibitor aminoguanidine was used as a control.

[3] = tested on: histone H1 (carbonylation); experiment: histone H1 carbonylation by reducing sugars, and interference by compounds; type: biochemical; details: compound 5 mM
Protocol: Both protein cross-linking and protein carbonylation are well established indicia of protein glycation. See Schacter, et al., Free Radic Biol Med. 17:429-437 (1994), incorporated by reference. In brief, following the assays described infra, formation of protein cross-linking was measured on 12% SDS-PAGE, followed by Coomassie and silver staining. Cross-linking was detectable with a high degree of sensitivity, when the reaction between ADP-ribose and histone H1 was carried out at pH 9.0. […] In FIG. 8, the abbreviations “M,” “D”, and “O” represent “monomer,” “dimer” and “oligomer,” respectively. Silver staining is the preferred way of determining the cross linking. Protein carbonlyation was determined via Western blotting. Specifically, AGE-BSA, which had been prepared by incubating BSA with 1.66M glucose, at pH 7.4 for 90 days at 37° C., was recognized after being derivatized with 2.4 dinitrophenlyhydrazine (“DNP”), when tested with antibodies specific for protein bound, DNP epitopes.
A series of experiments were carried out to compare different reducing sugars as glycation agents. In addition to ADP-ribose, ADP-glucose, D-ribose and D-glucose were tested. Briefly, histone H1 was combined with 1 mM of each sugar, and the mixture was incubated at pH 7.4. After 7 days of incubation, reaction aliquots were analyzed on 12% SDS-PACE gels, with silver staining. Results are presented in FIGS. 19A and B. In each of these, lane 1 is a control, with no sugar added, while lanes 2-5 show results using D-glucose, D-ribose, ADP-glucose, and ADP-ribose, respectively. […] The amount of carbonylation caused by ADP-ribose (0.82 mole/mole histone H1), and D-ribose (0.06 mole/mole histone H1) correlated with immunostaining.
In order to determine if the carbonylation of histone H1 by ADP-ribose involved an oxidative pathway, several compounds, known to interfere with glycoxidation of proteins by D-glucose were tested to determine if they interfered with this action by ADP-ribose. The compounds tested included 5 mM DTPA under argon, 5 mM aminoguanidine, 5 mM N^α acetyl L-cysteine, 5 mM mannitol, and 100 units/ml catalase.

[4] = tested on: He-Cat (human epidermal keratinocytes); experiment: protection against α-dicarbonyl toxicity in keratinocytes, cell count; type: cell-based; details: for protection against growth inhibition by glyoxal: compound 1 mM added 15 minutes prior to glyoxal; for protection against growth inhibition by glyoxal / protection against methylglyoxal induced growth inhibition: 72 hours; for protection against methylglyoxal induced growth inhibition: compound 1 mM added 15 minutes prior to methylglyoxal
Protocol: (§1) Continuously cultured cell lines “He-Cat” (human epidermal keratinocytes), and “CF-3” (human dermal fibroblasts), were cultured under standard conditions, divided biweekly into DMEM containing 10% fetal bovine serum, and were kept in a humidified atmosphere containing 5% CO2 at 37° C. In order to divide the cells, 5% trypsin was used on the keratinocytes, and 1% trypsin was used on the fibroblasts.
(§2) Keratinocytes were seeded at 2×10^4 cells/well, and fibroblasts at 4×10^4 cells/well, using 6 well dishes. The cells were allowed to attach to the plate overnight. Either D-penicillamine or aminoguanidine (1 mM each) was added to the plates 15 minutes prior to addition of glyoxal or methylglyoxal. The α-dicarbonyl was left for 72 hours. Varying concentrations of the α-dicarbonyl were used. Cells were counted with a Coulter counter after 72 hours of stress. Cultures were also run where the glyoxal or methylglyoxal was used without the scavenger. L-alanine was used as a negative control as it was not expected to have protective effect.

[5] = tested on: CF-3 (human dermal fibroblasts); experiment: protection against α-dicarbonyl toxicity in fibroblasts, cell count; type: cell-based; details: for protection against methylglyoxal induced growth inhibition: compound 1 mM added 15 minutes prior to methylglyoxal, 72 hours
Protocol: as §1, §2

[6] = aldehyde trapping, reaction with phenylacetaldehyde followed by HPLC; details: same manner as phenylglyoxal
Protocol: Reactions were carried out in 10 mM phosphate buffer, pH 7.4, at 37° C., and were followed by HPLC analysis. Phenylglyoxal was used at a concentration of 50 mM, while D-penicillamine and aminoguanidine were used at concentrations of 250 mM, and 500 mM. The phenylglyoxal was used as a UV active, α-oxoaldehyde compound. Over the course of the reaction, aliquots were analyzed via HPLC. For reactions involving D-penicillamine, aliquots were taken at 20 second intervals and kept on dry ice for analysis. Initial reaction rates of phenylglyoxal and test compounds were monitored by following the disappearance of phenylglyoxal over time. D-penicillamine trapped phenylglyoxal more than 60 times faster than aminoguanidine. In order to determine if the α-oxo substitution had any impact on the progress of the aldehyde trapping reaction, the reactivity of D-penicillamine with the aldehyde corresponding to phenylglyoxal, i.e., phenylacetaldehyde, was carried out, in the same manner as is described herein.

[7] = α-dicarbonyl trapping, reaction with phenylglyoxal followed by HPLC
Protocol: To learn more about the reaction, D-penicillamine was reacted with phenylglyoxal. In the fashion described supra, phenylgyloxal, at final concentration of 10 mM, and D-penicillamine, at final concentration of 20 mM were reacted in 50 mM KH2PO4 buffer, pH 7.4, at room temperature. Reaction progress was monitored via HPLC analysis of reaction aliquots at 254 nm. After 40 minutes, more than 90% conversion of phenylgloxal peak into a single peak was observed. The product was obtained via preparative HPLC, was lyophilized, and analyzed by H-NMR spectroscopy.
Reactions were carried out in 10 mM phosphate buffer, pH 7.4, at 37° C., and were followed by HPLC analysis. Phenylglyoxal was used at a concentration of 50 mM, while D-penicillamine and aminoguanidine were used at concentrations of 250 mM, and 500 mM. The phenylglyoxal was used as a UV active, α-oxoaldehyde compound. Over the course of the reaction, aliquots were analyzed via HPLC. […] Initial reaction rates of phenylglyoxal and test compounds were monitored by following the disappearance of phenylglyoxal over time. […]
The measured, first order rate constant (k1st) was used to calculate the second order rate constant (k2nd), according to: […]
The calculated second order rate constants were determined at two reactant rates (5:1, and 10:1), and were in good agreement.

[8] = increased concentration of D-penicillamine, methylglyoxal
[9] = treated with 6004M methylglyoxal (so in the source)

CC(C)(S)C(N)C(=O)O (racemic) [D,L-Penicillamine]
inhibition of histone H1 cross linking [1]: more potent than aminoguanidine
inhibition of AGE-fluorescence, in words [2]: the best of the compounds tested
AGE-fluorescence (day 5) ([2]; compound 1 mM): 13 (0.0)
% inhibition ([2]; compound 1 mM): 40%
AGE-fluorescence (day 0) ([2]; compound 1 mM): 1.1 (0.2)
AGE-fluorescence (day 5) ([2]; compound 5 mM): 2.7 (0.0)
% inhibition ([2]; compound 5 mM): 92%
AGE-fluorescence (day 0) ([2]; compound 5 mM): 1.1 (0.1)
AGE-fluorescence (day 5) ([2]; compound 10 mM): 1.7 (0.0)
% inhibition ([2]; compound 10 mM): 97%
AGE-fluorescence (day 0) ([2]; compound 10 mM): 1.1 (0.1)

N=C(N)NN [Aminoguanidine, aminoguanidine, reference compound]
interference with carbonylation of histone H1 by ADP-ribose [3]: slight effect
AGE-fluorescence (day 5) ([2]; compound 1 mM): 4.3 (0.2)
% inhibition ([2]; compound 1 mM): 84%
AGE-fluorescence (day 0) ([2]; compound 1 mM): 1.2 (0.1)
AGE-fluorescence (day 5) ([2]; compound 5 mM): 2.2 (0.0)
% inhibition ([2]; compound 5 mM): 96%
AGE-fluorescence (day 0) ([2]; compound 5 mM): 1.2 (0.1)
AGE-fluorescence (day 5) ([2]; compound 10 mM): 1.8 (0.0)
% inhibition ([2]; compound 10 mM): 97%
AGE-fluorescence (day 0) ([2]; compound 10 mM): 1.3 (0.1)
suppression of AGE-fluorescence, primary screen outcome ([2]; test compound 5 mM or limit of solubility, pH 7.4, 37° C.): suppresses the glycation of histone H1 by ADP-ribose
protection against growth inhibition by glyoxal [4]: appeared to protect keratinocytes against growth inhibition by glyoxal
protection against methylglyoxal induced growth inhibition [4]: rescued both cell lines from methylglyoxal induced growth inhibition in part
protection against methylglyoxal induced growth inhibition [5]: rescued both cell lines from methylglyoxal induced growth inhibition in part

CC(C)(S)[C@@H](N)C(=O)O [D-Penicillamine, reference compound]
inhibition of histone H1 cross linking [1]: more potent than aminoguanidine
inhibition of AGE-fluorescence, in words [2]: the best of the compounds tested
AGE-fluorescence (day 5) ([2]; compound 1 mM): 11 (0.6)
% inhibition ([2]; compound 1 mM): 51%
AGE-fluorescence (day 0) ([2]; compound 1 mM): 1.2 (0.0)
AGE-fluorescence (day 5) ([2]; compound 5 mM): 2.9 (0.3)
% inhibition ([2]; compound 5 mM): 91%
AGE-fluorescence (day 0) ([2]; compound 5 mM): 1.1 (0.1)
AGE-fluorescence (day 5) ([2]; compound 10 mM): 1.4 (0.1)
% inhibition ([2]; compound 10 mM): 99%
AGE-fluorescence (day 0) ([2]; compound 10 mM): 1.1 (0.0)
protection against growth inhibition by glyoxal [4]: appeared to protect keratinocytes against growth inhibition by glyoxal
protection against methylglyoxal induced growth inhibition [4]: almost completely blocked methylglyoxal's toxicity
dose range cyto-protective effect [4, 8]: increased protection
survival [4, 9]: 100%
protection against methylglyoxal induced growth inhibition [5]: almost completely blocked methylglyoxal's toxicity
dose range cyto-protective effect [5, 8]: increased protection
survival [5, 9]: 47%
efficiency of trapping phenylacetaldehyde relative to phenylglyoxal [6]: about 14 times less efficiently
conversion of phenylglyoxal peak into a single peak ([7]; phenylglyoxal 10 mM, D-penicillamine 20 mM, 50 mM KH2PO4 pH 7.4, room temperature, after 40 minutes): more than 90%
rate of phenylglyoxal trapping relative to aminoguanidine ([7]; second order rate constants, 10 mM phosphate buffer pH 7.4, 37° C.): more than 60 times faster

NC(=O)C1=CN([C@@H]2O[C@H](COP(=O)(O)OP(=O)(O)OC[C@H]3O[C@@H](n4cnc5c(N)ncnc54)[C@H](O)[C@@H]3O)[C@@H](O)[C@H]2O)C=CC1 [NADH]
inhibition of histone H1 cross linking [1]: no inhibitory activity
AGE-fluorescence (day 5) ([2]; compound 5 mM): 31 (0.0)
